What was measured:
[1] = test system: AVEFA; assay: Herbicidal post-emergence action 1a (greenhouse pots, visual rating); assay type: in vivo, Avena fatua; conditions: rated visually about 3 weeks after treatment, 100% = plants have died, 0% = like control plants
Procedure, shortened: (§1)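 Visual scoring versus untreated plants (100% = plants dead, 0% = as control) followed roughly 3 weeks in the greenhouse after treatment. Plants grown in sandy loam pots had been sprayed on green parts at the one-leaf stage, 2–3 weeks post-sowing, with aqueous WP/EC preparations containing 0.5% additive, 600 l/ha, at 320 and/or 80 g/ha.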

[2] = test system: POLCO; assay: as above; assay type: in vivo, Polygonum convolvulus; conditions: visual rating about 3 weeks after treatment
Procedure, shortened: as §1

[3] = test system: MATIN; assay: as above; assay type: in vivo, Matricaria inodora; conditions: visual rating about 3 weeks after treatment
Procedure, shortened: as §1

[4] = test system: POAAN; assay: Herbicidal post-emergence action 1b (twin sowing, 1280 g/ha); assay type: in vivo, Poa annua; conditions: dosage 1280 g/ha, visual rating about 3 weeks after treatment
Procedure, shortened: (§2)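 Compounds formulated as WP or EC were applied with 0.5% additive in 600 L/ha water onto one-leaf-stage weeds, each pot sown with one monocot and one dicot species in sandy loam. After roughly 3 weeks in the greenhouse, visual percent activity was scored against untreated plants.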

[5] = test system: AMARE; assay: Herbicidal pre-emergence action 2a (greenhouse pots, visual scoring); assay type: in vivo, Amaranthus retroflexus; conditions: dosage 320 g/ha, visual scoring after about 3 weeks vs untreated controls
Procedure, shortened: (§3)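 Sow, cover with soil, spray soil surface (WP or EC in water, 0.5% additive, 600 l/ha; 320 and/or 80 g/ha), grow in greenhouse ~3 weeks, score visually in % against untreated controls.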

[6] = test system: ABUTH; assay: as above; assay type: in vivo, Abutilon theophrasti; conditions: dosage 320 g/ha, visual scoring after about 3 weeks vs untreated controls
Procedure, shortened: as §3

[7] = test system: DIGSA; assay: Herbicidal post-emergence action 1b (twin sowing, 1280 g/ha); assay type: in vivo, Digitaria sanguinalis; conditions: dosage 1280 g/ha, visual rating about 3 weeks after treatment
Procedure, shortened: as §2

[8] = test system: DIGSA; assay: Herbicidal pre-emergence action 2b (doubly sown, 1280 g/ha); assay type: in vivo, Digitaria sanguinalis; conditions: doubly sown pots, dosage 1280 g/ha, visual scoring after about 3 weeks
Procedure, shortened: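 Visual % scores against untreated plants (0% = like control, 100% = dead) were taken roughly 3 weeks after treatment in the greenhouse. Compounds, as WP or EC with 0.5% additive, were applied in 600 l/ha water onto covering soil over seeds of paired mono-/dicot weeds in sandy loam.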

[9] = test system: ABUTH; assay: Herbicidal post-emergence action 1b (twin sowing, 1280 g/ha); assay type: in vivo, Abutilon theophrasti; conditions: dosage 1280 g/ha, visual rating about 3 weeks after treatment
Procedure, shortened: as §2

[10] = test system: MATIN; assay: as above; assay type: in vivo, Matricaria inodora; conditions: dosage 1280 g/ha, visual rating about 3 weeks after treatment
Procedure, shortened: as §2

[11] = test system: LOLRI; assay: Herbicidal post-emergence action 1a (greenhouse pots, visual rating); assay type: in vivo, Lolium rigidum; conditions: rated visually about 3 weeks after treatment, 100% = plants have died, 0% = like control plants
Procedure, shortened: as §1

[12] = test system: STEME; assay: as above; assay type: in vivo, Stellaria media; conditions: rated visually about 3 weeks after treatment, 100% = plants have died, 0% = like control plants
Procedure, shortened: as §1

[13] = test system: STEME; assay: Herbicidal pre-emergence action 2a (greenhouse pots, visual scoring); assay type: in vivo, Stellaria media; conditions: dosage 320 g/ha, visual scoring after about 3 weeks vs untreated controls
Source text: (§4) [table] a) Seeds of monocotyledonous and dicotyledonous weed plants and crop plants are placed in plastic or organic plant pots and covered with soil. The compounds of the invention, formulated in the form of wettable powders (WP) or as emulsion concentrates (EC), are then applied onto the surface of the covering soil as aqueous suspension or emulsion with addition of 0.5% additive at a water application rate of 600 1/ha (converted). After the treatment, the pots are placed in a greenhouse and kept under good growth conditions for the trial plants. After about 3 weeks, the effect of the preparations is scored visually in comparison with untreated controls as percentages. For example, 100% activity=the plants have died, 0% activity=like control plants. Tables B1 to B15 below show the effects of selected compounds of the general formula (I) according to Tables 1 and 2 on various harmful plants and an application rate corresponding to 320 g/ha and/or 80 g/ha, which were obtained by the experimental procedure mentioned above.

[14] = test system: ABUTH; assay: Herbicidal post-emergence action 1a (greenhouse pots, visual rating); assay type: in vivo, Abutilon theophrasti; conditions: visual rating about 3 weeks after treatment
Procedure, shortened: as §1

[15] = test system: HORMU; assay: as above; assay type: in vivo, Hordeum murinum; conditions: rated visually about 3 weeks after treatment, 100% = plants have died, 0% = like control plants
Procedure: [table] a) Seeds of monocotyledonous and dicotyledonous weeds and crop plants are placed in sandy loam in plastic or organic plant pots, covered with soil and cultivated in a greenhouse under controlled growth conditions. 2 to 3 weeks after sowing, the test plants are treated at the one-leaf stage. The compounds of the invention, formulated in the form of wettable powders (WP) or as emulsion concentrates (EC), are then sprayed onto the green parts of the plants as aqueous suspension or emulsion with addition of 0.5% additive at a water application rate of 600 1/ha (converted). After the test plants have been kept in the greenhouse under optimum growth conditions for about 3 weeks, the activity of the preparations is rated visually in comparison to untreated controls. For example, 100% activity=the plants have died, 0% activity=like control plants. Tables A1 to A15 below show the effects of selected compounds of the general formula (I) according to Tables 1 and 2 on various harmful plants and an application rate corresponding to 320 g/ha and/or 80 g/ha, which were obtained by the experimental procedure mentioned above.

[16] = test system: PHBPU; assay: Herbicidal pre-emergence action 2a (greenhouse pots, visual scoring); assay type: in vivo, Pharbitis purpurea; conditions: dosage 320 g/ha, visual scoring after about 3 weeks vs untreated controls
Procedure, shortened: as §3

[17] = test system: HORMU; assay: as above; assay type: in vivo, Hordeum murinum; conditions: dosage 320 g/ha, visual scoring after about 3 weeks vs untreated controls
Source text: as §4

Row | SMILES | Post-emergence action against AVEFA in % ([1]; Dosage 80 g/ha) | Post-emergence action against AVEFA in % ([1]; Dosage 320 g/ha) | Post-emergence action against POLCO in % ([2]; dosage 320 g/ha) | Post-emergence action against MATIN in % ([3]; dosage 320 g/ha) | Pre-emergence action against AMARE in % [5] | Pre-emergence action against ABUTH in % [6] | Post-emergence action at 1280 g/ha against MATIN in % [10] | Post-emergence action against LOLRI in % ([11]; Dosage 80 g/ha) | Post-emergence action against LOLRI in % ([11]; Dosage 320 g/ha) | Post-emergence action against POLCO in % ([2]; dosage 80 g/ha) | Post-emergence action against MATIN in % ([3]; dosage 80 g/ha) | Post-emergence action against STEME in % ([12]; Dosage 80 g/ha) | Post-emergence action against STEME in % ([12]; Dosage 320 g/ha) | Pre-emergence action against STEME in % [13] | Post-emergence action against ABUTH in % ([14]; dosage 80 g/ha) | Post-emergence action against ABUTH in % ([14]; dosage 320 g/ha) | Post-emergence action against HORMU in % ([15]; Dosage 80 g/ha) | Post-emergence action against HORMU in % ([15]; Dosage 320 g/ha) | Pre-emergence action against PHBPU in % [16] | Pre-emergence action against HORMU in % [17] | further results
1 | COC(=O)[C@@H](C)Oc1nn(-c2cnccn2)c(-c2ccc(F)c(F)c2)c1C#N [Example I-46] | 80% | 80% | 100% | 80% | 100% | 80% | 90% | 90% | 90% |  |  |  |  |  |  |  |  |  |  |  | Post-emergence action at 1280 g/ha against POAAN in % [4]: 100%; Post-emergence action at 1280 g/ha against DIGSA in % [7]: 100%; Pre-emergence action at 1280 g/ha against DIGSA in % [8]: 100%; Post-emergence action at 1280 g/ha against ABUTH in % [9]: 90%
2 | COC(=O)COc1nn(-c2cnccn2)c(-c2cncc(F)c2)c1Br [Example I-07] | 100% | 100% | 90% | 90% | 100% |  |  | 80% | 90% | 80% | 90% | 90% | 90% | 100% | 80% | 90% | 80% | 90% | 90% | 90% | 
3 | COC(=O)C(C)Oc1nn(-c2cnccn2)c(-c2cncc(F)c2)c1Br (racemic) [Example I-08] | 100% | 100% | 100% | 90% | 100% | 80% |  |  | 90% |  | 80% | 90% | 90% | 100% | 80% | 90% | 80% | 90% | 90% | 100% | 
4 | CCOC(=O)COc1nn(-c2cnccn2)c(-c2ccccc2)c1Br [Example I-01] |  |  | 80% | 90% | 100% |  | 90% |  | 90% | 80% | 80% |  | 90% | 80% |  | 80% |  |  |  |  | 
